Test results reported in patent US20200079814A1, “Nucleotides comprising an N-[(S)-1-cyclobutoxycarbonyl]phosphoramidate moiety and analogs and application thereof” (priority 2017, published 2020).
pEC50: −log10 of the molar value. Several values for one entry are separate records, joined by “and”; a condition that tells them apart may be missing. Equal values may be shown once. Read-outs that look alike come from different tables or passages of the source. Marks after values point to notes of the source that are not given here.

Columns and labels:
[1] = tested on: HCV replicon, genotype 1b (gT1b HCV NS5B); conditions: cited from earlier work; for pEC50: from hcvdruginfo.ca
[2] = tested on: Huh7 human hepatocellular carcinoma cell line; conditions: from M. J. Sofia et al. J. Med. Chem. 2010; cited from earlier work
[3] = from M. J. Sofia et al. J. Med. Chem. 2010; cited from earlier work
[4] = from M. J. Sofia et al. J. Med. Chem. 2010; cited from earlier work; remark: listed apart in the source
[5] = from M. J. Sofia et al. J. Med. Chem. 2010; cited from earlier work; remark: listed apart in the source
[6] = from M. J. Sofia et al. J. Med. Chem. 2010; cited from earlier work; remark: listed apart in the source
[7] = tested on: HCV replicon, genotype 1b (gT1b HCV NS5B); experiment: Anti-HCV activity in Huh7 cells stably transfected with an HCV replicon; format: cell-based
Experimental: The antiviral activity of tested compositions comprising prodrugs was evaluated using an Huh7 human hepatocellular carcinoma cell line stably transfected with an HCV replicon. A cell suspension in a complete culture medium (DMEM 1X, Cellgro; cat. #10-013-CV) was transferred into 96-well plates (50 μl per well) with a final density of 7500 cells per well. The serial dilutions of tested prodrugs were prepared from a fresh 200-fold generic solution in DMSO with 11 concentration points dilution for each step, starting from 20 nM in a complete medium and were used as 2-fold solutions in two replicates. Minimum 4 hours after planting the cells, 50 μl of serial prodrug dilutions was added to each well. […] The plate with cells was incubated for 3 days at 37° C. under humidified 5% CO2. Upon completion of incubation, the medium was removed by turning the plate over and shaking it carefully. The cells were fixed for one minute with 100 μl of a 1:1 acetone:methanol solution, washed 3 times with a phosphate buffer (PBS), and blocked for 1 h at room temperature using a 10% fetal bovine serum (FBS) in PBS (150 μl/well). […] The reaction was stopped by 2N H2SO4 (100 μl/well), and OD490 was measured using the multifunctional reader Victor^3 V 1420 (Perkin Elmer). The values of EC50 for tested prodrugs were measured from an activity curve plotted using the GraphPad Prizm software.

HCV = conditions: literature; cited from earlier work
[8] = tested on: HIV strain NL4.3 carrying the GFP-reporter (NL4.3-GFP); experiment: microbe, parasite or virus in culture; format: cell-based; conditions: for pEC50: Human immunodeficiency virus 1, SUP-T1, 45 h; for SI = CC50/EC50: SupT1 cells
Experimental: (§1) The antiviral activity of tested compounds was evaluated on the T-lymphocytes line, SupT1. The cells were infected with the HIV strain NL4.3 carrying a gene encoding the green fluorescent protein (NL4.3-GFP). A virus preparation was obtained by means of transfection of the 293T cells of […] DNA. After 48 hours of transfection, the medication was frozen and stored until being used. To increase the efficiency of infection, the suspension of SupT1 cells was sedimented from the infection mixture by centrifugation. Tested compounds were added to the cells immediately before adding the virus. After 2 hours of incubation, the infection mixture was replaced by a fresh culture medium with tested compounds. The efficiency of infection was evaluated after 45 hours by computing the percentage of fluorescence-bright cells against uninfected cell cultures. Concurrently, the cytotoxicity of tested compounds was evaluated in the same, but uninfected, cell line SupT1 using the XTT reagent. To determine antiviral activity and cytotoxicity, serial tenfold dilutions of the preparations were used (starting with 10 j-M for antiviral activity and from 100 μM for cytotoxicity). DMSO (0.1%) was used for negative control. The values of EC50, CC50 and SI (selectivity index) were found. The quality of tests was evaluated based on the following controls: signal to background ratio, integrase inhibitor raltegravir (1 μM), and reproducibility of test results. Emetine (0.03, 0.09, and 0.2 μM) was used as the reference for cytotoxicity evaluation.

SupT1 cells = experiment: Cytotoxicity in uninfected SupT1 cells (XTT reagent); format: cell-based
Experimental: as §1

[9] = as above; format: cell-based; conditions: human, uninfected SupT1 cells (T-lymphocyte line)
Experimental: as §1

physchem = conditions: for half-life at 1 μM: simulated gi fluid
Experimental: (§2) Initial compositions comprising the prodrug of formula 1B.7 (the tested compounds) were prepared with a concentration of 10 mM in DMSO. From said compositions, 100-fold working solutions were prepared with a concentration of 100 μM in a mixture of acetonitrile:water with a volumetric ratio of 1:1.
b) Stability in Artificial Gastric and Intestinal Juices.
The tested composition comprising the prodrug of formula 1B.7 in a final concentration of 1 μM was incubated in artificial gastric juice (0.2% NaCl in 0.7% v/v HCl) and artificial intestinal juice (0.05M KH2PO4, pH 6.75). The incubation was performed in a Vortemp56 shaking incubator at 37° C. with stirring at a rate of 300 rev/min. […] The samples were then centrifuged, and the supernatant (150 μl) was sampled for analysis […]. The incubation was performed in two replicates, with each sample measured twice.
Samples were analyzed using an HPLC-MS/MS technique developed for each tested prodrug, wherein the chromatographic system 1290 Infinity II (Agilent Technologies) was combined with the tandem mass spectrometer QTRAP5500 (AB Sciex). When developing conditions for mass-spectrometric detection, the solutions of tested compounds in a mixture of acetonitrile-water 1:1 with a concentration of 100 ng/ml were injected directly into the mass spectrometer using a syringe pump with electrospray ionization in a positive ion mode. Scanning in a total ion current mode (MS1) allowed us to identify a molecular ion for each compound, and basic product ions were recorded in MS2 mode. Then, to attain maximum sensitivity, the MS/MS technique was optimized in MRM mode. In quantitative chromatogram processing, the most intensive MRM transition was used for the analyte and the internal standard. Separation was carried out by means of linear gradient elution chromatography on a YMC Triart C18 column (50×2 mm, 1.9 μm) in a mobile phase consisting of 0.1% formic acid in water and 0.1% formic acid in acetonitrile. Tolbutamide (Fluka) was used as the internal standard.
(§3) Half-life (T1/2) was found from the kinetics of tested prodrug elimination in an antiviral composition during incubation in a biological matrix. The computations were based on the values of chromatographic peak areas for compounds in test samples normalized to the internal standard signal. From linear dependence of log normalized areas of chromatographic peaks on time, the constant of elimination rate was calculated (k is linear section slope).

[10] = pooled human blood plasma, 1 μM, 37° C.
Experimental: as §2
(§4) The samples were then centrifuged, and the supernatant (150 μl) was sampled for analysis […]. The incubation was performed in two replicates, with each sample measured twice.
(§5) Samples were analyzed using an HPLC-MS/MS technique developed for each tested prodrug, wherein the chromatographic system 1290 Infinity II (Agilent Technologies) was combined with the tandem mass spectrometer QTRAP5500 (AB Sciex). […] Scanning in a total ion current mode (MS1) allowed us to identify a molecular ion for each compound, and basic product ions were recorded in MS2 mode. […] In quantitative chromatogram processing, the most intensive MRM transition was used for the analyte and the internal standard. […]
as §3, with “The computations were based on the values of chromatographic peak areas for compounds in test samples normalized to the internal standard signal.” left out

[11] = Stability in human liver S9 fraction
Experimental: as §2, §4, §5
as §3, with “The computations were based on the values of chromatographic peak areas for compounds in test samples normalized to the internal standard signal.” left out

[12] = gT1b, from M. J. Sofia et al. J. Med. Chem. 2010

**Q.** For `CC(C)OC(=O)[C@H](C)NP(=O)(OC[C@H]1O[C@@H](n2ccc(=O)[nH]c2=O)[C@](C)(F)[C@@H]1O)Oc1ccccc1` (stereo partly drawn) [Sovaldi ®, isopropyl (S)-2-{[(2R,3R,4R,5R)-5-(2,4-dioxo-3,4-dihydro-2H-pyrimidin-1-yl)-4-fluoro-3-hydroxy-4-methyl-tetrahydrofuran-2-ylmethoxy]-phenoxy-phosphorylamino}-propionate], which EC90 [1, 12] is on record?
**A.** Its EC90 is 520 nM.

**Q.** And the EC90 ([1]; gT1b, from M. J. Sofia et al. J. Med. Chem. 2010, listed as Sovaldi®)?
**A.** Its EC90 is 590 nM.

**Q.** What about the pEC50 ([1]; gT1b) of the same compound?
**A.** Its pEC50 is 6.77 to 7.35.

**Q.** What about the EC90 ([1]; genotype 1b (gT1b) HCV) of the same compound?
**A.** The EC90 was 590 nM.

**Q.** And the pEC50 ([1]; genotype 1b (gT1b) HCV)?
**A.** The pEC50 was 6.77 to 7.35.

**Q.** And the CC90 [2]?
**A.** Its CC90 is > 100000 nM.

**Q.** What about the “T1/2 human S9” value [3] of the same compound?
**A.** The value was 0.54 h and 0.57 h.

**Q.** What about the “T1/2 SGF” value [4] of the same compound?
**A.** The value was 22.0* h.

**Q.** And the “T1/2 SIF” value [5]?
**A.** Its value is >24* h.

**Q.** What about the T1/2 human plasma [6] of the same compound?
**A.** Its T1/2 human plasma is >24* h.

**Q.** What does the source list for `C[C@H](N[P@](=O)(OC[C@H]1O[C@@H](n2ccc(=O)[nH]c2=O)[C@](C)(F)[C@@H]1O)Oc1ccccc1)C(=O)OC1CC1` [Prodrug 2.2, (S)-cyclopropyl 2-((S)-(((2R,3R,4R,5R)-5-(2,4-dioxo-3,4-dihydropyrimidin-1(2H)-yl)-3-hydroxy-4-methyl-4-fluoro-tetrahydrofuran-2-yl)methoxy)-(phenoxy)-phosphorylamino)-propanoate]?
**A.** EC90 ([7]; 10% FBS): 410 nM; pEC50 ([7]; Hepatitis C virus, Huh-7, 10% FBS): 7.14

**Q.** Which EC90 (HCV) does the source give for `COc1nc(N)nc2c1ncn2C1O[C@H](COP(=O)(N[C@@H](C)C(=O)OC(C)C)Oc2ccccc2)[C@@H](O)[C@@]1(C)F` (stereo partly shown) [PSI-353661] here?
**A.** The EC90 was 8 nM.

**Q.** With `CC(C)(CO)C(=O)SCCOP(=O)(NCc1ccccc1)OC[C@H]1OC(n2cnc3c(=O)[nH]c(N)nc32)[C@](C)(O)[C@@H]1O` (stereo partly shown) [IDX-184] as the compound, how does the pEC50 (HCV) read?
**A.** The pEC50 was 6.40.

**Q.** With `CC(C)OC(=O)[C@H](C)N[P@](=O)(CO[C@H](C)Cn1cnc2c(N)ncnc21)Oc1ccccc1` [TAF, temofovir alafenamide] as the compound, how does the pEC50 [8] read?
**A.** The pEC50 was 7.46.

**Q.** What about the “SI = CC50/EC50” value [8] of the same compound?
**A.** The value was 2857.

**Q.** And the CC50 (SupT1 cells)?
**A.** Its CC50 is > 100000 nM.

**Q.** With `COc1nc(N)nc2c1ncn2[C@@H]1O[C@H](COP(=O)(N[C@@H](C)C(=O)OCC(C)(C)C)Oc2cccc3ccccc23)[C@@H](O)[C@@]1(C)O` (stereo partly shown) [INX-08189] as the compound, how does the pEC50 (HCV) read?
**A.** Its pEC50 is 8.00.

**Q.** Which EC90 [1, 12] does the source give for `C[C@H](NP(=O)(OC[C@H]1O[C@@H](n2ccc(=O)[nH]c2=O)[C@](C)(F)[C@@H]1O)Oc1ccccc1)C(=O)OC1CCCCC1` (stereo partly drawn) [Prodrug 2.1, cyclohexyl (S)-2-{[(2R,3R,4R,5R)-5-(2,4-dioxo-3,4-dihydro-2H-pyrimidin-1-yl)-4-fluoro-3-hydroxy-4-methyl-tetrahydrofuran-2-ylmethoxy]-phenoxy-phosphorylamino}-propionate] here?
**A.** The EC90 was 250 nM.

**Q.** What about the “T1/2 human S9” value [3] of the same compound?
**A.** The value was 1.4 h.

**Q.** What about the “T1/2 SGF” value [4] of the same compound?
**A.** The value was 17* h.

**Q.** What about the “T1/2 SIF” value [5] of the same compound?
**A.** Its value is >20* h.

**Q.** What about the T1/2 human plasma [6] of the same compound?
**A.** The T1/2 human plasma was >24* h.

**Q.** What does the source list for `C[C@H](Cn1cnc2c(N)ncnc21)OC[P@@](=O)(N[C@@H](C)C(=O)OC1CCC1)Oc1ccccc1` [Prodrug 1A.1, (S)-cyclobutyl 2-((S)-(((R)-1-(6-amino-9H-purin-9-yl)propan-2-yloxy)methyl) (phenoxy)phosphorylamino)-propanoate]?
**A.** pEC50 [8]: 7.57; selectivity, times higher than TAF ([8]; SupT1 HIV test, versus TAF): 1.4 times; SI = CC50/EC50 [8]: >3704; CC50 [9]: > 100000 nM

**Q.** With `C[C@H](Cn1cnc2c(N)ncnc21)OC[P@](=O)(N[C@@H](C)C(=O)OC1CCC1)Oc1ccccc1` [Prodrug 1A.2, (S)-cyclobutyl 2-((R)-(((R)-1-(6-amino-9H-purin-9-yl)propan-2-yloxy)methyl) (phenoxy)phosphorylamino)-propanoate] as the compound, how does the pEC50 [8] read?
**A.** Its pEC50 is 7.42.

**Q.** And the “SI = CC50/EC50” value [8]?
**A.** Its value is >2632.

**Q.** What about the CC50 [9] of the same compound?
**A.** The CC50 was > 100000 nM.

**Q.** Which “T1/2 SGF” value (physchem; artificial gastric juice, 1 μM, 37° C.) does the source give for `C[C@H](N[P@](=O)(OC[C@H]1O[C@@H](n2ccc(=O)[nH]c2=O)[C@](C)(F)[C@@H]1O)Oc1ccccc1)C(=O)OC1CCC1` [Prodrug 1B.7, (S)-cyclobutyl 2-{(S)-[(2R,3R,4R,5R)-5-(3,4-dihydro-2,4-dioxo-2H-pyrimidin-1-yl)-3-hydroxy-4-methyl-4-fluoro-tetrahydrofuran-2-ylmethoxy]-phenoxy-phosphorylamino}-propanoate] here?
**A.** Its value is 12.7 h.

**Q.** What about the “T1/2 SIF” value (physchem; artificial intestinal juice, 1 μM, 37° C.) of the same compound?
**A.** The value was >24 h.

**Q.** And the half-life at 1 μM (physchem)?
**A.** The half-life at 1 μM was 12.7 to 17 h.

**Q.** What about the half-life at 1 μM (physchem; pH 6.75) of the same compound?
**A.** Its half-life at 1 μM is > 20 h.

**Q.** And the T1/2 human plasma [10]?
**A.** The T1/2 human plasma was >24 h.

**Q.** And the “metabolic rate in human S9 fraction, times faster than Sovaldi” value ([11]; versus Sovaldi)?
**A.** The value was 11 times.

**Q.** What about the “metabolic rate in human S9 fraction, times faster than compound 2.1” value ([11]; versus compound of formula 2.1) of the same compound?
**A.** The value was 28 times.
